Results on nine compounds are retold here after publication PMC12466706 (Antioxidants, 2025).

For one series, the system named is Huh7 cells. Conditions: human.
The test system of the next series is YFV. In words: microbe, parasite or virus in culture. In kind it is cell-based, Yellow fever virus (YFV-17D). To be noted: read-out: EC50 against YFV replication.
The subject of series [1] is DENV. The series is described as follows: microbe, parasite or virus in culture. To be noted: for EC50: read-out: Replication EC50. In kind it is cell-based, Dengue virus (DENV-2 16681 strain).
Series [2] has as its system pBR322 supercoiled plasmid DNA. In kind it is biochemical, Escherichia coli.
Experiment in series [3]: not given
The source holds these as a separate data set.

The subject of series [4] is DENV. The series is described as follows: microbe, parasite or virus in culture. In kind it is cell-based, Dengue virus (DENV-2 16681 strain).
Series [5] deals with DENV. The series is described as follows: microbe, parasite or virus in culture. In kind it is cell-based, Dengue virus (DENV-2 16681 strain). The source holds these as a separate data set.
The nature of another series: in vitro. To be noted: human.
[6] abbreviates: Dengue virus, Huh-7, 72 h, read-out: Infectivity EC50.
The mark [7] stands for this setting: Dengue virus, Huh-7, read-out: Infectivity EC50.
The mark [8] stands for this setting: Dengue virus, 72 h, read-out: Entry + Replicaion EC50.
Setting [9] is: Dengue virus, Huh-7, 72 h, read-out: Entry + Replication EC50.

Read-outs that look alike come from different tables or passages of the source.

A word on the EC50: it is the concentration needed to bring the measured effect to its halfway point. As for `O=c1c(O)c(-c2ccc(O)cc2)oc2cc(O)cc(O)c12` [Kaempferol, kaempferol], the “ABTS radical scavenging activity IC50” value is 1.84 µg/mL. Also, in the series on Huh7 cells, the CC50 is > 6.466 µg/mL. The EC50 in the series on YFV (Yellow fever virus, 72 h) was > 50 µM. Also, the EC50 with DENV [1] (Dengue virus, Huh-7, 72 h) is 31.5 ± 6.39 µM. Besides, the “inhibition of DNA strand breakage” value in [2] worked out at 97.34%. Moreover, the “DPPH scavenging activity IC50” value in series [3] worked out at 7.40 µg/mL. Besides, the EC50 with DENV [4] (setting [6]) is 3.55 ± 0.07 µM. In addition, the EC50 in the series on DENV [4] (setting [7]) was determined as 0.25 µg/mL. Also, in the series on DENV [5] (setting [8]), the EC50 was found to be 2.53 µg/mL. Moreover, in the series with DENV [5] (setting [9]), the EC50 came to 35.5 ± 4.09 µM. Moreover, the CC50 in the series “in vitro” is 90.4 µM.
Take `C[C@@H]1O[C@@H](OC[C@H]2O[C@@H](Oc3c(-c4ccc(O)c(O)c4)oc4cc(O)cc(O)c4c3=O)[C@H](O)[C@@H](O)[C@@H]2O)[C@H](O)[C@H](O)[C@H]1O` [Rutin, rutin]: the “ABTS radical scavenging activity IC50” value stood at 4.54 µg/mL. The EC50 in the series on YFV (Yellow fever virus, 72 h) was > 100 µM. For the same compound, the EC50 in the series with DENV [1] (Dengue virus, Huh-7, 72 h) is > 100 µM. For the same compound, the EC50 with DENV [1] (Dengue virus) was > 61 µg/mL. In series [2], the “inhibition of DNA strand breakage” value is reported as 88.60%. The “DPPH scavenging activity IC50” value in series [3] stood at 21.86 µg/mL. Besides, the EC50 in the series on DENV [4] (setting [6]) is > 100 µM. Moreover, the EC50 in the series on DENV [4] (setting [7]) is > 61 µg/mL. Moreover, the EC50 in the series with DENV [5] (setting [8]) is > 61 µg/mL. The EC50 in the series with DENV [5] (setting [9]) is > 100 µM. Besides, the CC50 in the series “in vitro” is > 500 µM.
For the compound `O=C1C[C@@H](c2ccc(O)cc2)Oc2cc(O)cc(O)c21` [Naringenin, naringenin], the “ABTS radical scavenging activity IC50” value is 3.37 µg/mL. In the series with YFV (Yellow fever virus, 72 h), the EC50 was found to be 102 ± 34.4 µM. The EC50 with DENV [1] (Dengue virus, Huh-7, 72 h) was > 100 µM. Also, in the series with DENV [1] (Dengue virus), the EC50 was > 27.2 µg/mL. Further, the “inhibition of DNA strand breakage” value in series [2] was 92.03%. The “DPPH scavenging activity IC50” value in series [3] is 17.45 µg/mL. In addition, the EC50 with DENV [4] (setting [6]) was > 100 µM. Also, the EC50 with DENV [4] (setting [7]) was > 27.2 µg/mL. Besides, in the series with DENV [5] (setting [8]), the EC50 is 28.5 µg/mL. The EC50 in the series with DENV [5] (setting [9]) was > 100 µM.
Regarding `O=C(/C=C/c1ccc(O)c(O)c1)O[C@H](Cc1ccc(O)c(O)c1)C(=O)O` [Rosmarinic acid, rosmarinic acid], the “ABTS radical scavenging activity IC50” value is 3.05 µg/mL. In addition, the EC50 in the series with YFV (Yellow fever virus, 72 h) is 98 ± 21 µM. Moreover, the EC50 with DENV [1] (Dengue virus, Huh-7, 72 h) is 76.2 ± 7.92 µM. In addition, the EC50 with DENV [1] (Dengue virus) was 27.4 µg/mL. Moreover, in series [2], the “inhibition of DNA strand breakage” value is 93.12%. In [3], the “DPPH scavenging activity IC50” value is 12.28 µg/mL. Further, in the series on DENV [4] (setting [6]), the EC50 was found to be 37.1 ± 0.94 µM. Also, the EC50 in the series with DENV [4] (setting [7]) was determined as 13.4 µg/mL. Moreover, the EC50 in the series with DENV [5] (setting [8]) turned out to be 25.6 µg/mL. The EC50 in the series with DENV [5] (setting [9]) turned out to be 70.9 ± 9.1 µM. The CC50 in “in vitro” is > 500 µM.
Take `O=c1c(O)c(-c2ccc(O)c(O)c2)oc2cc(O)cc(O)c12` [Quercetin, quercetin]: the “ABTS radical scavenging activity IC50” value amounted to 1.93 µg/mL. Further, the EC50 with YFV (Yellow fever virus, 72 h) is > 100 µM. Further, in the series on DENV [1] (Dengue virus, Huh-7, 72 h), the EC50 worked out at 58.5 ± 7.08 µM. The EC50 in the series on DENV [1] (Dengue virus) amounted to 17.7 µg/mL. Also, in series [2], the “inhibition of DNA strand breakage” value stood at 96.52%. The “DPPH scavenging activity IC50” value in series [3] was 8.05 µg/mL. The EC50 in the series on DENV [4] (setting [6]) came to 104 ± 1.49 µM. In the series with DENV [4] (setting [7]), the EC50 amounted to 31.4 µg/mL. Further, the EC50 with DENV [5] (setting [8]) stood at 32.1 µg/mL. Further, the EC50 with DENV [5] (setting [9]) was 109 ± 17.6 µM.
For `COc1cc(/C=C/C(=O)O)ccc1O` [Ferulic acid, ferulic acid], the “ABTS radical scavenging activity IC50” value turned out to be 2.51 µg/mL. In addition, the EC50 in the series on YFV is > 100 µM. In the series on DENV [1], the “Replication EC50” value was > 19.41 µg/mL and the EC50 is > 100 µM. In addition, the “inhibition of DNA strand breakage” value in series [2] turned out to be 94.17%. In addition, the “DPPH scavenging activity IC50” value in [3] was 10.14 µg/mL. In addition, in the series on DENV [4], the “Infectivity EC50” value was > 19.41 µg/mL. Moreover, the EC50 with DENV [4] (read-out: Infectivity EC50) was > 100 µM. In the series on DENV [5], the “Entry + Replicaion EC50” value is > 19.41 µg/mL. The EC50 in the series on DENV [5] (read-out: Entry + Replication EC50) is > 100 µM.
For `O=c1cc(-c2ccc(O)c(O)c2)oc2cc(O)cc(O)c12` [Luteolin, luteolin], the “ABTS radical scavenging activity IC50” value amounted to 2.20 µg/mL. In addition, the EC50 with YFV (Yellow fever virus, 72 h) is > 100 µM. The EC50 in the series with DENV [1] (Dengue virus, Huh-7, 72 h) is 107 ± 1.82 µM. Moreover, in the series with DENV [1] (Dengue virus), the EC50 was 30.7 µg/mL. Moreover, in series [2], the “inhibition of DNA strand breakage” value is 95.87%. Also, the “DPPH scavenging activity IC50” value in [3] was 9.48 µg/mL. For the same compound, in the series with DENV [4] (setting [6]), the EC50 is > 100 µM. Moreover, the EC50 with DENV [4] (setting [7]) was > 28.6 µg/mL. Also, the EC50 with DENV [5] (setting [8]) was determined as 20.8 µg/mL. In the series on DENV [5] (setting [9]), the EC50 was found to be 72.7 ± 7.76 µM.
On to `O=C(O)/C=C/c1ccc(O)cc1` [Coumaric acid, coumaric acid], for which the “ABTS radical scavenging activity IC50” value worked out at 4.00 µg/mL. Also, the EC50 in the series on YFV (Yellow fever virus, 72 h) turned out to be 154 ± 29.8 µM. The half-maximal effective concentration (EC50) in the series on DENV [1] (Dengue virus, Huh-7, 72 h) is > 100 µM. In addition, the EC50 in the series on DENV [1] (Dengue virus) is > 16.4 µg/mL. Moreover, the “inhibition of DNA strand breakage” value in series [2] is on record as 89.85%. The “DPPH scavenging activity IC50” value in series [3] came to 21.17 µg/mL. The EC50 with DENV [4] (setting [6]) is 91.64 ± 0.4 µM. Further, in the series on DENV [4] (setting [7]), the EC50 amounted to 15 µg/mL. In the series with DENV [5] (setting [8]), the EC50 stood at 7.87 µg/mL. The 50% effective concentration (EC50) in the series with DENV [5] (setting [9]) came to 48 ± 2.43 µM.
As for `O=C(O)/C=C/c1ccc(O)c(O)c1` [Caffeic acid, caffeic acid], the “ABTS radical scavenging activity IC50” value is 1.28 µg/mL. Also, the EC50 in the series on YFV (Yellow fever virus, 72 h) was > 100 µM. Besides, the EC50 in the series on DENV [1] (Dengue virus, Huh-7, 72 h) is 35.9 ± 1.88 µM. For the same compound, the “inhibition of DNA strand breakage” value in series [2] is recorded as 98.98%. For the same compound, the “DPPH scavenging activity IC50” value in series [3] was 6.37 µg/mL. Besides, the EC50 in the series with DENV [4] (setting [6]) is 51.5 ± 1.19 µM. Also, the EC50 in the series on DENV [4] (setting [7]) came to 4.63 µg/mL. Moreover, the EC50 with DENV [5] (setting [8]) is > 4.5 µg/mL. Moreover, the EC50 with DENV [5] (setting [9]) is > 100 µM.
